Measurements: US12201679B2, “Epitope-targeted peptide immunostimulants” (priority 2019, dated 2025)
Entries after “also recorded” stand apart in the source; their conditions may differ. Bridge positions count the residues as written; N and C are the ends. Square brackets hold non-standard residues; d marks the D form. Triazole bridges read from a SMILES are 1,4-linked. Ends that are not written are not given here. Peptide text beside a SMILES is read from it. Lys(N3) = [N-]=[N+]=NCCCC[C@H](N)C(=O)O; Pra = C#CC[C@H](N)C(=O)O

Key:
[1] = system: K. pneumoniae cells, BAA 1705 and BAA 2146; test: Whole-cell ELISA, anti-DNP recruitment to bacterial cell surfaces; format: cell-based, Klebsiella pneumoniae; settings: cy(LLFFF)-DNP 5 or 10 μM; dummy cy(HNGPT)-DNP 50 and 100 μM; plus anti-DNP
Protocol: FIG. 12 is a plot of 450 nm absorbances obtained from a cell-based ELISA assay conducted on two strains of K. pneumoniae cells, BAA 1705 (black) and BAA 2146 (orange), that were either untreated or opsonized by EPIs (AR-PCCs) and/or antibodies. […] This establishes EPI-driven opsonization by cy(LLFFF)-DNP (SEQ ID NO:5).
The protocol for detecting anti-DNP recruitment to bacterial cell surfaces is as follows. Bacteria were incubated with the desired concentration of DNP-conjugated PCCs in PBS-BSA for 1 h at 37° C. Residual PCCs were washed off by using PBS-BSA and bacteria were incubated with anti-DNP antibody (1:1000) for 1 h at 37° C. After washing, bacteria were incubated with HRP conjugated secondary antibody (Bio-Rad) at a dilution of 1:10,000 for 1 h at 37° C. Unbound antibody was washed off by using PBS-BSA and the cells were then developed by using TMB reagent. The reaction was quenched using 2N H2SO4 and absorbance was measured at 450 nm. Anti-MrkA antibody was procured from Biorbyt (orb51318) and used at a concentration of 5 μg/mL, and K. pneumoniae antiserum was obtained from abcam (ab20947) and used at a concentration of 5 μg/mL.

[2] = system: K. pneumoniae cells (strain BAA 2146); test: Flow cytometry, recruitment of fluorescent anti-DNP antibodies; format: cell-based, Klebsiella pneumoniae; settings: 50 μM AR-PCC plus Alexafluor 488 anti-DNP
[3] = molecular target: full-length recombinant MrkA protein (Klebsiella pneumoniae, UniProt P12267); format: binding
Description: HPraGly is present before X1 in each peptide and Az4 follows X5 in each peptide.

[4] = Isocratic point, elution from C18 prep-scale column; format: physicochemical
How it was run: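 Isocratic point taken from compound elution on a C18 preparative-scale column, on a Waters autopurification system with MS-triggered collection of [M+1H]^+, [M+2H]^2+ and/or sodium adduct peaks.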

MrkA protein = MrkA protein (Klebsiella pneumoniae, UniProt P12267); test: Sandwich ELISA, MrkA binding in mouse sera; settings: MrkA 250 nM in 10 and 100% mouse sera
Description: By comparison, the addition of polyarginine tags reduced the IP to near 40% without substantial loss in MrkA avidity (three leftmost data points in FIG. 4B).

[5] = system: K. pneumoniae (strains BAA 1705 & 2146); test: Whole-cell ELISA, biotinylated PCC, multidrug-resistant K. pneumoniae; format: cell-based, Klebsiella pneumoniae; settings: for binding selectivity towards MrkA-expressing K. pneumoniae cells versus E. coli and S. typhimurium: whole-cell ELISA, FIG. 5C
Protocol: Detection of the binding of biotinylated PCCs to bacterial surface was performed as follows. 10^8 bacteria from a culture grown overnight were used for each test. […] After washing thrice with PBS to remove unbound PCCs, bacteria were incubated with Streptavidin-HRP (1:1000) for 1 h at 37° C. Bacteria were washed thoroughly and the TMB reagent was added until visible coloration was observed. The reaction was quenched using 2N H2SO4 and absorbance was measured at 450 nm.

[6] = system: K. pneumoniae cells (strain BAA 1705); test: Gentamicin protection assay: phagocytosis and opsonophagocytic killing (OPK) by macrophages; format: cell-based, Klebsiella pneumoniae; settings: for phagocytosis at 1 h, DNP-tagged AR-PCC plus anti-DNP (words): FIG. 7B
Protocol: It also tested whether DNP-conjugated EPIs could promote the opsonophagocytic killing (OPK) of K. pneumoniae by macrophages. This was tested by using an OPK assay. Briefly, K. pneumoniae cells were treated with EPI and then anti-DNP antibody before being exposed to macrophages for either 6 or 24 hours. During this incubation period, macrophages that recognize K. pneumoniae cells will phagocytose them, and phagocytosed bacteria will remain viable for up to 6 hours, but within 24 hours are rendered inviable by OPK. Thus, macrophages were isolated after 6 and 24 hours of incubation with K. pneumoniae, lysed them, and plated and grew the lysate, which yielded bacterial colonies that reflect the phagocytosis (at 6 hrs) or OPK (at 24 hrs) of bacteria.
Given that cy(LLFFF)-DNP (SEQ ID NO:5) recruits antibodies to K. pneumoniae surfaces, it was expected that K. pneumoniae opsonized in this manner would be more susceptible to phagocytosis by macrophages. AR-PCC-driven phagocytosis and OPK were quantified by a gentamicin protection assay, as depicted in FIG. 7A. For this assay, K. pneumoniae cells (strain BAA 1705) were treated with cy(LLFFF)-DNP (SEQ ID NO:5), opsonized by anti-DNP antibodies, and then incubated with murine bone-marrow-derived macrophages (BMDMs). BMDMs were subsequently exposed to a solution containing gentamicin, to which K. pneumoniae strain BAA 1705 is susceptible, to kill any extracellular bacteria. Phagocytosed bacteria remain viable inside BMDMs for at least 1 h, yet are rendered inviable after 24 h by OPK (FIG. 13). Macrophages harvested at 1 h and 24 h were lysed and plated to generate bacterial colonies, which were enumerated to quantify phagocytosis and OPK.
Klebsiella pneumoniae BAA1705 was treated with DNP-PCCs followed by incubation with anti-DNP antibody, as described above in the “Cell-Based ELISAs” section. These opsonized bacteria were then used to infect BMDMs at a multiplicity of infection of 50 for 0.5 h at 37° C. Bacteria were then washed by using RPMI 1640 Media and BMDMs were left in cell culture medium containing gentamicin (100 μg/ml). After 1 h and 24 h BMDMs were washed to remove gentamicin and intracellular bacteria were harvested by lysing BMDMs in RPMI media containing 0.2% Triton X 100. Bacterial CFUs were enumerated by plating onto LB agar. Bacterial counts at 1 h indicated the degree of opsonization while those at 24 h served as a measure of microbicidal activity of macrophages. For these measurements, anti-MrkA antibody and K. pneumoniae antiserum were used at dilutions of 5 μg/mL each.

[7] = system: live MRSA cells or heat-killed MRSA cells; test: ELISA, PCC-driven SAv-HRP recruitment to MRSA cells; format: cell-based, Staphylococcus aureus; settings: biotinylated PCC, with or without 0.4 micrograms/mL tunicamycin
Protocol: FIG. 16A-16B are graphs showing PCC-driven recruitment of streptavidin-horseradish peroxidase (SAv-HRP) conjugate to live MRSA cells (FIG. 16A) or heat-killed MRSA cells (FIG. 16B) cultured under different antibiotic conditions via enzyme-linked Immunosorbent Assays (ELISAs). All tests were conducted by coating the antigen (MRSA cells) onto the wells of 96-well plates and then exposing the wells solutions containing biotinylated PCCs, then SAv-HRP, then HRP substrate followed by detection via absorbance at 450 nm. Absorbance values greater than the “no PCC” background indicate that several PCCs recruit SAv-HRP to either live cells (FIG. 16A) or heat-killed cells (FIG. 16B) cultured either without antibiotic (“−tunicamycin”, blue bars) or with 0.4 micrograms/mL of tunicamycin (“+tunicamycin”, red), which reduces the expression of wall teichoic aids by MRSA. All measurements were conducted in triplicate and error bars reflect standard deviations. The PCC sequences are, from left to right in both graphs, SEQ ID NOs: 6, 23, 34, and 29.
The recruitment ability of selected PCCs was assessed by PCC-driven recruitment of streptavidin-horseradish peroxidase (SAv-HRP) conjugate to live MRSA cells (FIG. 16A) or heat-killed MRSA cells (FIG. 16B) cultured under different antibiotic conditions via enzyme-linked Immunosorbent Assays (ELISAs). […]

[8] = system: wild type KPPR1 (ATCC 43816) cells; test: Whole-cell ELISA, biotinylated PCC, wild type KPPR1; format: cell-based, Klebsiella pneumoniae; settings: biotinylated PCC 5 μM down to 5 nM, G-CAA media
Protocol: In this assay, bacteria are exposed to biotinylated PCC ligands, then SAv-horseradish peroxidase (SAv-HRP), and then developed to produce a colorometric signal that correlates with SAv-HRP binding.
Whole-cell ELISA assays were conducted on the wild type version of the clinically-relevant strain of K. pneumoniae, KPPR1 (ATCC 43816). Wild type KPPR1 cells were cultured in G-CAA media to promote fimbrial expression (54), and MrkA expression in KPPR1 was confirmed by a western blot (FIG. 5B inset, full blot in FIG. 9).
(§1) Detection of the binding of biotinylated PCCs to bacterial surface was performed as follows. 10^8 bacteria from a culture grown overnight were used for each test. Bacteria were incubated with PBS containing 1% BSA (PBS-BSA) for 1 h at 37° C., washed once with PBS, and then incubated with 5 μM of the biotinylated PCC in PBS-BSA for 1 h at 37° C. After washing thrice with PBS to remove unbound PCCs, bacteria were incubated with Streptavidin-HRP (1:1000) for 1 h at 37° C. Bacteria were washed thoroughly and the TMB reagent was added until visible coloration was observed. The reaction was quenched using 2N H2SO4 and absorbance was measured at 450 nm.

[9] = system: MrkA-knockout KPPR1 cells; test: Whole-cell ELISA, biotinylated PCC, MrkA-knockout KPPR1; format: cell-based, Klebsiella pneumoniae
Protocol: ELISA signals were only observed for K. pneumoniae cells (strain BAA 1705) cultured in G-CAA (FIG. 11A), when treated with PCCs at concentrations of 5 μM or lower.
as §1

Escherichia coli = test: Whole-cell ELISA, biotinylated PCC, E. coli; format: cell-based; settings: biotinylated PCC at 5 μM, FIG. 5C
Protocol: (§2) Whole-cell ELISA data in FIG. 5C show strong signal from the two strains of K. pneumoniae (BAA 1705 and BAA 2146) but only weak signals from Escherichia coli (E. coli) or Salmonella typhimurium (S. typhimurium) cells. […] In these tests, droplets of phosphate buffered solution containing live bacteria or heat-killed bacteria and various concentrations of (NH4)2SO4 at 10 m or 30 m following mixing were imaged. Aggregation in each droplet was assessed by visual inspection and scored as indicating non-aggregated, low levels of aggregation, or extensive aggregation. All droplets were on a single glass slide and image acquisition of all droplets took less than a minute for each 10 m and 30 m time point.
as §1

Salmonella typhimurium = test: Whole-cell ELISA, biotinylated PCC, S. typhimurium; format: cell-based; settings: biotinylated PCC at 5 μM, FIG. 5C
Protocol: as §2, §1

SynEp 1 = SynEp 1 (Klebsiella pneumoniae, UniProt P12267, V41X); test: Epitope selectivity sandwich ELISA, immobilized SynEp 1; settings: DNP-conjugated ligand at 500 nM, background biotin-PEG6
[10] = strain BAA 1705, PCC 5 μM to 5 nM

Molecule: cy(HNGPT)-DNP (cyclo(HNGPT); also: DNP label) [reference compound]
- 450 nm absorbance, anti-DNP opsonization of K. pneumoniae [1]: Much smaller signals
- fluorescence intensity of cells (predominantly) [2]: < 1.0×10^1 intensity

Molecule: cy(LLFFF)+R6 (LLFFFRRRRRR; also: cyclic over residues 1-5, ring closure not given here)
- stronger affinity to MrkA over cy(LLFFF) ([3]; ratio of ELISA signals, FIG. 4B): 22%
- isocratic point (IP) [4]: ~40%
- reduction (improvement) in IP versus cy(LLFFF) [4]: ~35%
- binding to MrkA protein in mouse sera (MrkA protein): binds MrkA protein in the context of sera; also recorded: bound MrkA protein in solutions of 10 and 100% mouse sera
- binding selectivity towards MrkA-expressing K. pneumoniae cells versus E. coli and S. typhimurium [5]: similarly high selectivity
- phagocytosis at 1 h, DNP-tagged AR-PCC plus anti-DNP (words) [6]: also enhanced phagocytosis
- phagocytosis at 1 h, DNP-tagged AR-PCC plus anti-DNP (words) ([6]; listed as cy(LLFFF)-R6): comparable to that of cy(LLFFF)-DNP

Molecule: cy(kpdew) ([dK][dP][dD][dE][dW]; not fully specified (bridges); printed as cy(kpdew); also: cyclic, closure not given here)
- SAv-HRP recruitment to MRSA cells [7]: Standout recruiting peptides

Molecule: cy(akkrp) ([dA][dK][dK][dR][dP]; not fully specified (bridges); printed as cy(akkrp); also: cyclic, closure not given here)
- SAv-HRP recruitment to MRSA cells [7]: Standout recruiting peptides

Molecule: CC(C)C[C@@H]1NC(=O)[C@H](CC(C)C)NC(=O)[C@@H](N)Cc2cn(nn2)CCCC[C@@H](C(=O)O)NC(=O)[C@H](Cc2ccccc2)NC(=O)[C@H](Cc2ccccc2)NC(=O)[C@H](Cc2ccccc2)NC1=O [cy(LLFFF)] (H-[Pra]LLFFF[Lys(N3)]-OH; triazole 1-7)
- binding to full-length MrkA compared to cy(LLFFF) ([3]; sandwich ELISA, alanine scan and analogues): highest affinity
- whole-cell ELISA signal, wild type KPPR1 [8]: strong signals; also recorded: binds wild type MrkA-expressing KPPR1 cells
- whole-cell ELISA signal, MrkA-knockout KPPR1 [9]: comparable to baseline; also recorded: but not MrkA-knockout KPPR1
- whole-cell ELISA binding at high PCC concentration ([5]; strain BAA 1705, 50 μM PCC, LB or G-CAA): bound K. pneumoniae cells regardless of MrkA-expression level; also recorded: strong and comparable ELISA signals
- whole-cell ELISA 450 nm absorbance, cells cultured in G-CAA (high MrkA) [5, 10]: strong absorbances
- whole-cell ELISA 450 nm absorbance, cells cultured in LB (low MrkA) [5, 10]: near-baseline absorbances
- binding selectivity towards MrkA-expressing K. pneumoniae cells versus E. coli and S. typhimurium [5]: excellent binding selectivity
- whole-cell ELISA signal, E. coli (Escherichia coli): small absorbances; also recorded: weak signals
- whole-cell ELISA signal, S. typhimurium (Salmonella typhimurium): small absorbances; also recorded: weak signals
- 450 nm absorbance, anti-DNP opsonization of K. pneumoniae [1]: much larger signal
- CFU, DNP-conjugated EPI plus anti-DNP, macrophages harvested at 6 hrs ([6]; 6 hrs): more than 80,000 CFU
- cell counts, DNP-conjugated EPI only (no antibody), macrophages harvested at 6 hrs ([6]; 6 hrs): ~35,000
- cell counts at 24 h (OPK) ([6]; 24 h of incubation): little to no cell counts
- ELISA signal on SynEp 1 (SynEp 1): Negative signals
